In PubChem BioAssay (NCI):
Where “and” joins values, the source holds several entries; their conditions need not be identical. Equal entries are not always repeated.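 Test compounds were applied to cells in 96-well plates for 48 hours at 5 doses. GI50 is the concentration that inhibits growth by half. TGI marks complete inhibition of growth.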

system: SNB-75 CNS; assay: DTP human tumour cell line panel, 48 h

| Structure (SMILES) | TGI |
| --- | --- |
| CSc1ccc(/C=C2/C[N+](C)(C)C/C(=C/c3ccc(SC)cc3)C2=O)cc1 | 62.4 µM |
| CCOCNC(=O)N(COCC)COCC | > 100 µM |
| COC(=O)CSc1n[nH]c(-c2ccc(O)c([N+](=O)[O-])c2)n1 | > 100 µM |
| NC1C2(CCCCCC2)NC(=O)C12CCCCCC2 (configuration not stated) | > 100 µM |
| COC(=O)c1cc2c(c(C(=O)OC)c1O)C(=O)C=CC2=O | > 9.1 µM and 31.8 µM |

system: SNB-78 CNS; assay: DTP human tumour cell line panel, 48 h

| Structure (SMILES) | TGI [µM] | GI50 [µM] |
| --- | --- | --- |
| CSc1ccc(/C=C2/C[N+](C)(C)C/C(=C/c3ccc(SC)cc3)C2=O)cc1 | > 100 | – |
| NCC(=O)NC(CCCC(NC(=O)CN)P(=O)(O)O)P(=O)(O)O (configuration not stated) | > 100 | – |
| CCOCNC(=O)N(COCC)COCC | > 100 | – |
| NC1C2(CCCCCC2)NC(=O)C12CCCCCC2 (configuration not stated) | > 100 | – |
| COC(=O)c1cc2c(c(C(=O)OC)c1O)C(=O)C=CC2=O | > 66.8 | > 9.1 |

system: UACC-62 melanoma; assay: DTP human tumour cell line panel, 48 h

| Structure (SMILES) | TGI | GI50 [µM] |
| --- | --- | --- |
| CCc1nc2ccccc2c(=O)n1/N=C(\N=Nc1ccc(Cl)cc1)c1ccccc1Cl | > 100 µM | – |
| NCC(=O)NC(CCCC(NC(=O)CN)P(=O)(O)O)P(=O)(O)O (configuration not stated) | > 100 µM | – |
| CCOCNC(=O)N(COCC)COCC | > 100 µM | – |
| COC(=O)CSc1n[nH]c(-c2ccc(O)c([N+](=O)[O-])c2)n1 | > 100 µM | – |
| NC1C2(CCCCCC2)NC(=O)C12CCCCCC2 (configuration not stated) | > 100 µM | – |
| COC(=O)c1cc2c(c(C(=O)OC)c1O)C(=O)C=CC2=O | > 9.1 µM and 33.7 µM | 18 |

system: SN12C renal; assay: DTP human tumour cell line panel, 48 h

| Structure (SMILES) | TGI [µM] | GI50 [µM] |
| --- | --- | --- |
| CCc1nc2ccccc2c(=O)n1/N=C(\N=Nc1ccc(Cl)cc1)c1ccccc1Cl | > 100 | – |
| CSc1ccc(/C=C2/C[N+](C)(C)C/C(=C/c3ccc(SC)cc3)C2=O)cc1 | 21.2 | – |
| CCOCNC(=O)N(COCC)COCC | > 100 | – |
| COC(=O)CSc1n[nH]c(-c2ccc(O)c([N+](=O)[O-])c2)n1 | > 100 | – |
| NC1C2(CCCCCC2)NC(=O)C12CCCCCC2 (configuration not stated) | > 100 | – |
| COC(=O)c1cc2c(c(C(=O)OC)c1O)C(=O)C=CC2=O | > 56.3 | > 9.1 |

system: DLD-1 colon; assay: DTP human tumour cell line panel, 48 h

| Structure (SMILES) | TGI [µM] | GI50 [µM] |
| --- | --- | --- |
| CSc1ccc(/C=C2/C[N+](C)(C)C/C(=C/c3ccc(SC)cc3)C2=O)cc1 | 22.8 | – |
| CCOCNC(=O)N(COCC)COCC | > 100 | – |
| COC(=O)CSc1n[nH]c(-c2ccc(O)c([N+](=O)[O-])c2)n1 | > 100 | – |
| NC1C2(CCCCCC2)NC(=O)C12CCCCCC2 (configuration not stated) | > 100 | – |
| COC(=O)c1cc2c(c(C(=O)OC)c1O)C(=O)C=CC2=O | > 46.1 | > 9.1 |

system: OVCAR-3 ovarian; assay: DTP human tumour cell line panel, 48 h

| Structure (SMILES) | TGI [µM] | GI50 [µM] |
| --- | --- | --- |
| CSc1ccc(/C=C2/C[N+](C)(C)C/C(=C/c3ccc(SC)cc3)C2=O)cc1 | 38.3 | – |
| CCOCNC(=O)N(COCC)COCC | > 100 | – |
| COC(=O)CSc1n[nH]c(-c2ccc(O)c([N+](=O)[O-])c2)n1 | > 100 | – |
| NC1C2(CCCCCC2)NC(=O)C12CCCCCC2 (configuration not stated) | > 100 | – |
| COC(=O)c1cc2c(c(C(=O)OC)c1O)C(=O)C=CC2=O | > 60.9 | > 9.1 |

system: IGROV1 ovarian; assay: DTP human tumour cell line panel, 48 h

| Structure (SMILES) | TGI [µM] | GI50 [µM] |
| --- | --- | --- |
| CCc1nc2ccccc2c(=O)n1/N=C(\N=Nc1ccc(Cl)cc1)c1ccccc1Cl | > 100 | – |
| NCC(=O)NC(CCCC(NC(=O)CN)P(=O)(O)O)P(=O)(O)O (configuration not stated) | > 100 | – |
| CCOCNC(=O)N(COCC)COCC | > 100 | – |
| COC(=O)CSc1n[nH]c(-c2ccc(O)c([N+](=O)[O-])c2)n1 | > 100 | – |
| NC1C2(CCCCCC2)NC(=O)C12CCCCCC2 (configuration not stated) | > 100 | – |
| COC(=O)c1cc2c(c(C(=O)OC)c1O)C(=O)C=CC2=O | > 58.6 | > 9.1 |

system: HL-60(TB) leukemia; assay: DTP human tumour cell line panel, 48 h

| Structure (SMILES) | TGI [µM] |
| --- | --- |
| CSc1ccc(/C=C2/C[N+](C)(C)C/C(=C/c3ccc(SC)cc3)C2=O)cc1 | 9.82 |
| NCC(=O)NC(CCCC(NC(=O)CN)P(=O)(O)O)P(=O)(O)O (configuration not stated) | > 100 |
| CCOCNC(=O)N(COCC)COCC | > 100 |
| COC(=O)CSc1n[nH]c(-c2ccc(O)c([N+](=O)[O-])c2)n1 | > 100 |
| NC1C2(CCCCCC2)NC(=O)C12CCCCCC2 (configuration not stated) | > 100 |
| COC(=O)c1cc2c(c(C(=O)OC)c1O)C(=O)C=CC2=O | > 24.4 |

system: SK-MEL-2 melanoma; assay: DTP human tumour cell line panel, 48 h

| Structure (SMILES) | TGI [µM] | GI50 [µM] |
| --- | --- | --- |
| CSc1ccc(/C=C2/C[N+](C)(C)C/C(=C/c3ccc(SC)cc3)C2=O)cc1 | 36.2 | – |
| CCOCNC(=O)N(COCC)COCC | > 100 | – |
| COC(=O)CSc1n[nH]c(-c2ccc(O)c([N+](=O)[O-])c2)n1 | > 100 | – |
| NC1C2(CCCCCC2)NC(=O)C12CCCCCC2 (configuration not stated) | > 100 | – |
| COC(=O)c1cc2c(c(C(=O)OC)c1O)C(=O)C=CC2=O | > 100 | > 100 |

system: SR leukemia; assay: DTP human tumour cell line panel, 48 h

| Structure (SMILES) | TGI [µM] |
| --- | --- |
| CSc1ccc(/C=C2/C[N+](C)(C)C/C(=C/c3ccc(SC)cc3)C2=O)cc1 | 71.7 |
| NCC(=O)NC(CCCC(NC(=O)CN)P(=O)(O)O)P(=O)(O)O (configuration not stated) | > 100 |
| COC(=O)CSc1n[nH]c(-c2ccc(O)c([N+](=O)[O-])c2)n1 | > 100 |
| NC1C2(CCCCCC2)NC(=O)C12CCCCCC2 (configuration not stated) | > 100 |
| COC(=O)c1cc2c(c(C(=O)OC)c1O)C(=O)C=CC2=O | > 22 |

system: RXF 393 renal; assay: DTP human tumour cell line panel, 48 h

| Structure (SMILES) | TGI [µM] | GI50 [µM] |
| --- | --- | --- |
| CCc1nc2ccccc2c(=O)n1/N=C(\N=Nc1ccc(Cl)cc1)c1ccccc1Cl | 72.5 | – |
| CSc1ccc(/C=C2/C[N+](C)(C)C/C(=C/c3ccc(SC)cc3)C2=O)cc1 | 31.6 | – |
| NCC(=O)NC(CCCC(NC(=O)CN)P(=O)(O)O)P(=O)(O)O (configuration not stated) | > 100 | – |
| COC(=O)CSc1n[nH]c(-c2ccc(O)c([N+](=O)[O-])c2)n1 | > 100 | – |
| NC1C2(CCCCCC2)NC(=O)C12CCCCCC2 (configuration not stated) | > 100 | – |
| COC(=O)c1cc2c(c(C(=O)OC)c1O)C(=O)C=CC2=O | > 48.9 | > 9.1 |

system: COLO 205 colon; assay: DTP human tumour cell line panel, 48 h

| Structure (SMILES) | TGI | GI50 [µM] |
| --- | --- | --- |
| CCc1nc2ccccc2c(=O)n1/N=C(\N=Nc1ccc(Cl)cc1)c1ccccc1Cl | > 100 µM | – |
| CSc1ccc(/C=C2/C[N+](C)(C)C/C(=C/c3ccc(SC)cc3)C2=O)cc1 | 17.8 µM | – |
| CCOCNC(=O)N(COCC)COCC | > 100 µM | – |
| NC1C2(CCCCCC2)NC(=O)C12CCCCCC2 (configuration not stated) | > 100 µM | – |
| COC(=O)c1cc2c(c(C(=O)OC)c1O)C(=O)C=CC2=O | > 9.1 µM and 98.8 µM | > 9.1 |

system: SF-268 CNS; assay: DTP human tumour cell line panel, 48 h

| Structure (SMILES) | TGI [µM] | GI50 [µM] |
| --- | --- | --- |
| CCc1nc2ccccc2c(=O)n1/N=C(\N=Nc1ccc(Cl)cc1)c1ccccc1Cl | > 100 | – |
| CSc1ccc(/C=C2/C[N+](C)(C)C/C(=C/c3ccc(SC)cc3)C2=O)cc1 | 22.7 | – |
| CCOCNC(=O)N(COCC)COCC | > 100 | – |
| COC(=O)CSc1n[nH]c(-c2ccc(O)c([N+](=O)[O-])c2)n1 | > 100 | – |
| NC1C2(CCCCCC2)NC(=O)C12CCCCCC2 (configuration not stated) | > 100 | – |
| COC(=O)c1cc2c(c(C(=O)OC)c1O)C(=O)C=CC2=O | > 55.2 | > 9.1 |

system: DMS 273 small cell lung; assay: DTP human tumour cell line panel, 48 h

| Structure (SMILES) | TGI [µM] | GI50 [µM] |
| --- | --- | --- |
| CCc1nc2ccccc2c(=O)n1/N=C(\N=Nc1ccc(Cl)cc1)c1ccccc1Cl | > 100 | – |
| NCC(=O)NC(CCCC(NC(=O)CN)P(=O)(O)O)P(=O)(O)O (configuration not stated) | > 100 | – |
| COC(=O)CSc1n[nH]c(-c2ccc(O)c([N+](=O)[O-])c2)n1 | > 100 | – |
| NC1C2(CCCCCC2)NC(=O)C12CCCCCC2 (configuration not stated) | > 100 | – |
| COC(=O)c1cc2c(c(C(=O)OC)c1O)C(=O)C=CC2=O | > 71.6 | > 9.1 |

system: DMS 114 small cell lung; assay: DTP human tumour cell line panel, 48 h

| Structure (SMILES) | TGI [µM] |
| --- | --- |
| CCc1nc2ccccc2c(=O)n1/N=C(\N=Nc1ccc(Cl)cc1)c1ccccc1Cl | 74.2 |
| CSc1ccc(/C=C2/C[N+](C)(C)C/C(=C/c3ccc(SC)cc3)C2=O)cc1 | 21.1 |
| NCC(=O)NC(CCCC(NC(=O)CN)P(=O)(O)O)P(=O)(O)O (configuration not stated) | > 100 |
| CCOCNC(=O)N(COCC)COCC | > 100 |
| NC1C2(CCCCCC2)NC(=O)C12CCCCCC2 (configuration not stated) | > 100 |
